Measurements from patent publication US10590143B2, “Herbicidally active (alkynyl-phenyl)-substituted cyclic dione compounds and derivatives thereof” (Syngenta Limited, priority 2013, dated 2020).
Like-named read-outs stand apart in the source and are kept apart here.

Key:
Assay type in all cases: in vivo
[1] = tested on: Eleusine indica (ELEIN); assay: Biological Example 3 glasshouse assay for herbicidal activity, using various adjuvant systems; settings: post-emergence, 8 g/ha, 14 or 15 DAA; adjuvant 0.5% v/v + 1.0% AMS + 12.5% IPA: TEHP (A3-A7), Adigor (A8, P1, P2, P4), Hexamoll DINCH (A1)
Protocol: (§1) • Materials and Methods • Herbicide Application: Post-emergence foliar spray application, 200 L/ha, usually one or two replicates for the weeds (depending on application rate), and two replicates for soybean. • Climate: Standard warm conditions (tropical), in glasshouse. Specifically, the glasshouse bay conditions are 24° C./18° C. day/night; 16/8 hours light/dark; 65% humidity. • Plants: The herbicidal application takes place at the following growth stages for plants which include inter alia one or more of the following plants (usually the herbicidal application takes place on at least the following plants: DIGSA, ELEIN, SETFA, ZEAMX, GLXMA Nikko, and GLXMA TMG133, and often also either BRADC or BRAPP): • Brachiaria decumbens (BRADC)—growth stage (GS) 12 or 13 (or GS 12)—or, if BRADC is not used, then usually Brachiaria platyphylla (BRAPP)—growth stage 12 or 13 • Digitaria sanguinalis (DIGSA)—growth stage 12 or 13 • Eleusine indica (ELEIN)—growth stage 12 or 13 • Setaria faberi (SETFA)—growth stage 12 or 13 • Echinochloa crus-galli (ECHCG)—growth stage 12 or 13 • Sorghum halepense (annual) (SORHA)—growth stage 12 or 13 • Panicum dichotomiflorum (PANDI)—growth stage 12 or 13 • Zea mays (ZEAMX, maize/corn, e.g. can occur as volunteer corn) cultivar “Garland”—growth stage 12 or 13 • Glycine max (GLXMA, soybean) cultivar “Nikko”—growth stage: 1st trifoliate • Glycine max (GLXMA, soybean) cultivar “TMG133”—which is Roundup Ready™ glyphosate-tolerant soybean cultivar TMG133 (typically available from Monsanto in Brazil)—growth stage: 1st trifoliate. • Herbicidal Compositions Tested:
(§2) Each test compound is applied with one of the following adjuvant systems (all percentages are final concentrations in the aqueous spray mixture): • Adjuvant system 1: 0.5% v/v Adigor™*, 1.0% v/v AMS (ammonium sulphate) and 12.5% v/v IPA (isopropyl alcohol). • Adjuvant system 2: 0.5% v/v Hexamoll™ DINCH**, 1.0% v/v AMS (ammonium sulphate) and 12.5% v/v IPA (isopropyl alcohol). • Adjuvant system 3: 0.5% v/v tris-(2-ethylhexyl)phosphate (“TEHP”), 1.0% v/v AMS (ammonium sulphate) and 12.5% v/v IPA (isopropyl alcohol). ***Adigor™ (currently available in many countries from Syngenta) is an emulsifiable concentrate which consists of: • (i) ethoxylated alcohols, which typically includes ethoxylated higher alcohols (e.g. ethoxylates of alcohols wherein the alcohols are within the range of C12-C22); and • (ii) a mixture of heavy aromatic hydrocarbons, which typically includes (e.g. includes 50% or more by weight of the heavy aromatic hydrocarbons of) a mixture of naphthalenes each of which is substituted by one or more alkyls wherein the alkyl(s) in total have 1-4 carbon atoms per naphthalene molecule (e.g. Solvesso 200 ND™); and • (iii) about 47% w/w and/or about 45% w/v (with respect to the emulsifiable concentrate) of methylated rapeseed oil (rapeseed oil methyl ester) (e.g. Agnique ME 18 RD-F™), as an adjuvant. **Hexamoll™ DINCH™ is 1,2-cyclohexane dicarboxylic acid di-isononyl ester
(§3) Seeds of the weed (including volunteer) plants, typically including inter alia Digitaria sanguinalis (DIGSA), Eleusine indica (ELEIN), Setaria faberi (SETFA), Zea mays (ZEAMX, corn), and sometimes also [either Brachiaria decumbens (BRADC) or Brachiaria platyphylla (BRAPP)], are sown in seed trays (troughs) containing clay loam soil (pH 7.0, 2.2% organic matter, “Trough Mix A”); and soybean seed is sown in pots containing the same soil with 3 soybean seedlings per pot. The plants are sprayed with the test herbicide when they reach the growth stages mentioned above.
(§4) The test herbicidal solutions are prepared by mixing the appropriate aliquots of the test substance(s) and one of the adjuvant systems indicated above*** in deionised water to give the desired treatment concentration.
(§5) The herbicidal application is made as a foliar spray, using a tracksprayer. Following the herbicidal application, the plants are watered twice per day for the duration of the test. […]

[2] = tested on: Echinochloa crus-galli (ECHCG); assay: Biological Example 1 glasshouse assay for herbicidal activity; settings: Echinochloa crus-galli, 312 h, 13 days after application, read-out: percentage phytotoxicity ECHCG
Protocol: (§6) Seeds of a variety of test plant species were sown in standard soil** in pots. After cultivation for one day (pre-emergence) or after 8 days cultivation (post-emergence) under controlled conditions in a glasshouse (at 24/16° C., day/night; 14 hours light; 65% humidity), the plants were sprayed with an aqueous spray solution derived from the formulation of the technical active ingredient (the test herbicide) in acetone/water (50:50) solution containing 0.5% Tween 20 (polyoxyethylene sorbitan monolaurate, CAS Reg. No. 9005-64-5). The test plants were then grown on under controlled conditions in a glasshouse (at 24/16° C., day/night; 14 hours light; 65% humidity) and watered twice daily. 13 Days after application of the test herbicide, for pre- and post-emergence, the test was evaluated visually for percentage phytotoxicity to each plant (where 100%=total damage to plant; 0%=no damage to plant). Generally, each test herbicide is only tested on 1 plant per plant species for each application rate tested and for each application timing. **The “standard soil” in Biological Example 1 is usually a “sand” or “sandy loam” type of soil.
(§7) Dicotyledonous weeds: ABUTH=Abutilon theophrasti; AMARE=Amaranthus retroflexus. Grassy monocotyledonous weeds: SETFA=Setaria faberi; ALOMY=Alopecurus myosuroides; ECHCG=Echinochloa crus-galli; ZEAMX=Zea mays (corn, maize, e.g. volunteer corn).

[3] = tested on: Amaranthus retroflexus (AMARE); assay: as above; settings: Amaranthus retroflexus, 312 h, 13 days after application, read-out: percentage phytotoxicity AMARE
Protocol: as §6, §7

[4] = tested on: Alopecurus myosuroides (ALOMY); assay: as above; settings: 312 h, 13 days after application, read-out: percentage phytotoxicity ALOMY
Protocol: as §6, §7

[5] = tested on: Setaria faberi (SETFA); assay: as above; settings: 312 h, 13 days after application, read-out: percentage phytotoxicity SETFA
Protocol: as §6, §7

[6] = tested on: Zea mays (ZEAMX, corn, maize, e.g. volunteer corn); assay: as above; settings: Zea mays, 312 h, 13 days after application, read-out: percentage phytotoxicity ZEAMX
Protocol: as §6, §7

[7] = tested on: Abutilon theophrasti (ABUTH); assay: as above; settings: 312 h, 13 days after application, read-out: percentage phytotoxicity ABUTH
Protocol: as §6, §7

[8] = tested on: Digitaria sanguinalis (DIGSA); assay: Biological Example 3 glasshouse assay for herbicidal activity, using various adjuvant systems; settings: post-emergence, 8 g/ha, 14 or 15 DAA; adjuvant 0.5% v/v + 1.0% AMS + 12.5% IPA: TEHP (A3-A7), Adigor (A8, P1, P2, P4), Hexamoll DINCH (A1)
Protocol: as §1, §2, §3, §4, §5

[9] = tested on: Setaria faberi (SETFA); assay: as above; settings: post-emergence, 8 g/ha, 14 or 15 DAA; adjuvant 0.5% v/v + 1.0% AMS + 12.5% IPA: TEHP (A3-A7), Adigor (A8, P1, P2, P4), Hexamoll DINCH (A1)
Protocol: as §1, §2, §3, §4, §5

[10] = tested on: Zea mays (ZEAMX, corn); assay: as above; settings: post-emergence, 8 g/ha, 14 or 15 DAA; adjuvant 0.5% v/v + 1.0% AMS + 12.5% IPA: TEHP (A3-A7), Adigor (A8, P1, P2, P4), Hexamoll DINCH (A1)
Protocol: as §1, §2, §3, §4, §5

[11] = post-emergence, post-emergence, 30 g/ha

Compound: CC#Cc1cc(Br)c(C2C(=O)C3CCC(C3)C2=O)c(OC)c1 (centres unmarked) [Compound A3]
- percentage control of (percentage phytotoxicity on) Eleusine indica (ELEIN) [1]: 55%
- pest or weed control at 30 g/ha [2, 11]: 90%
- pest or weed control at 250 g/ha ([2]; post-emergence, post-emergence): 100%
- pest or weed control at 250 g/ha ([2]; pre-emergence, pre-emergence): 100%
- pest or weed control at 30 g/ha [3, 11]: 0%
- pest or weed control at 250 g/ha ([3]; post-emergence, post-emergence): 20%
- pest or weed control at 250 g/ha ([3]; pre-emergence, pre-emergence): 20%
- pest or weed control at 30 g/ha ([4]; post-emergence, 30 g/ha): 70%
- pest or weed control at 250 g/ha ([4]; post-emergence): 100%
- pest or weed control at 250 g/ha ([4]; pre-emergence): 100%
- pest or weed control at 30 g/ha [5, 11]: 80%
- pest or weed control at 250 g/ha ([5]; post-emergence, post-emergence): 100%
- pest or weed control at 250 g/ha ([5]; pre-emergence, pre-emergence): 100%
- pest or weed control at 30 g/ha [6, 11]: 90%
- pest or weed control at 250 g/ha ([6]; post-emergence, post-emergence): 100%
- pest or weed control at 250 g/ha ([6]; pre-emergence, pre-emergence): 100%
- pest or weed control at 30 g/ha [7, 11]: 0%
- pest or weed control at 250 g/ha ([7]; post-emergence, post-emergence): 10%
- pest or weed control at 250 g/ha ([7]; pre-emergence, pre-emergence): 10%

Compound: CC#Cc1cc(F)c(C2C(=O)C3CCC(C3)C2=O)c(OCCOC)c1 (centres unmarked) [Compound A5]
- percentage control of (percentage phytotoxicity on) Eleusine indica (ELEIN) [1]: 0%
- percentage control of (percentage phytotoxicity on) Digitaria sanguinalis (DIGSA) [8]: 0%
- percentage control of (percentage phytotoxicity on) Setaria faberi (SETFA) [9]: 25%
- pest or weed control at 250 g/ha ([2]; post-emergence, post-emergence): 100%
- pest or weed control at 250 g/ha ([2]; pre-emergence, pre-emergence): 80%
- pest or weed control at 250 g/ha ([3]; post-emergence, post-emergence): 30%
- pest or weed control at 250 g/ha ([3]; pre-emergence, pre-emergence): 50%
- pest or weed control at 250 g/ha ([4]; post-emergence): 70%
- pest or weed control at 250 g/ha ([4]; pre-emergence): 40%
- pest or weed control at 250 g/ha ([5]; post-emergence, post-emergence): 80%
- pest or weed control at 250 g/ha ([5]; pre-emergence, pre-emergence): 60%
- pest or weed control at 250 g/ha ([6]; post-emergence, post-emergence): 100%
- pest or weed control at 250 g/ha ([6]; pre-emergence, pre-emergence): 90%
- pest or weed control at 250 g/ha ([7]; post-emergence, post-emergence): 30%
- pest or weed control at 250 g/ha ([7]; pre-emergence, pre-emergence): 20%

Compound: CC#Cc1cc(F)c(C2C(=O)C3CCC(C3)C2=O)c(OCC(F)(F)F)c1 (centres unmarked) [Compound A6]
- percentage control of (percentage phytotoxicity on) Eleusine indica (ELEIN) [1]: 5%
- percentage control of (percentage phytotoxicity on) Zea mays (ZEAMX, corn) [10]: 0%
- percentage control of (percentage phytotoxicity on) Digitaria sanguinalis (DIGSA) [8]: 5%
- percentage control of (percentage phytotoxicity on) Setaria faberi (SETFA) [9]: 25%
- pest or weed control at 250 g/ha ([2]; post-emergence, post-emergence): 100%
- pest or weed control at 250 g/ha ([2]; pre-emergence, pre-emergence): 80%
- pest or weed control at 250 g/ha ([3]; post-emergence, post-emergence): 50%
- pest or weed control at 250 g/ha ([3]; pre-emergence, pre-emergence): 60%
- pest or weed control at 250 g/ha ([4]; post-emergence): 80%
- pest or weed control at 250 g/ha ([4]; pre-emergence): 60%
- pest or weed control at 250 g/ha ([5]; post-emergence, post-emergence): 80%
- pest or weed control at 250 g/ha ([5]; pre-emergence, pre-emergence): 70%
- pest or weed control at 250 g/ha ([6]; post-emergence, post-emergence): 100%
- pest or weed control at 250 g/ha ([6]; pre-emergence, pre-emergence): 80%
- pest or weed control at 250 g/ha ([7]; post-emergence, post-emergence): 20%
- pest or weed control at 250 g/ha ([7]; pre-emergence, pre-emergence): 30%
